Measured values reported in patent publication US20140039044A1, “Hydroxylated Polymethoxyflavone Compositions” (WLLGEN, INC., priority 2006, published 2014).

Experiments:
Assay type in all cases: cell-based, human
[1] = system: COLO205 cells; test: Apoptotic ratio by propidium iodide flow cytometry (AC50); details: Homo sapiens, COLO 205; COLO205 cells; read-out: Apoptosis-inducing AC50
Protocol: (§1) The human cancer cells (2×10^5) were cultured in 60-mm Petri dishes and incubated for 24 h. After treated with test compounds for 24 h, the cells were then harvested, washed with PBS resuspended in 200 μL of PBS, and fixed in 800 μL of iced 100% ethanol at −20° C. After being left to stand overnight, the cell pellets were collected by centrifugation, resuspended in 1 mL of hypotonic buffer (0.5% Triton X-100 in PBS and 0.5 μg/mL RNase) and incubated at 37° C. for 30 min. Next, 1 mL of propidium iodide solution (50 μg/mL) was added, and the mixture was allowed to stand on ice for 30 min. Fluorescence emitted from the propidium iodide-DNA complex was quantitated after excitation of the fluorescent dye by FACScan cytometry (Becton Dickinson, San Jose, Calif.).
(§2) 1 N PMF and 6 N PMF compositions containing hydroxylated PMFs, prepared as described in Section 8.3 above, 70% PMF OPE and 5,6,7,8,3′,4′-hexamethoxyflavone (nobiletin) were tested for antiproliferative activity and apoptosis-inducing activity in HL-60, AGS and COLO205 cells as described in Section 8.4 above. Antiproliferative and apoptosis-inducing activities were derived as IC50 values and AC50, values, respectively, where AC50 is the concentration required for 50% apoptosis.
(§3) The PMF compounds were assayed in vitro for cell growth inhibition and for their ability to induce apoptosis in various human cancer cells, including HL-60, AGS, COLO 205, and HT-29 cells, using methods described in Section 8.4 above. Antiproliferative (IC50) and apoptosis-inducing activity (AC50) of PMFs in the HL-60, AGS, COLO 205, and HT-29 cells are reported in Table 9, where *P<0.05, **P<0.01 and ***P<0.001 indicate statistically significant differences from the control group.

[2] = system: AGS cells; test: as above; details: Homo sapiens; AGS cells; read-out: Apoptosis-inducing AC50
Protocol: as §1, §2, §3

[3] = system: HL-60 cells; test: as above; details: Homo sapiens; HL-60 cells; read-out: Apoptosis-inducing AC50
Protocol: as §1, §2, §3

[4] = system: COLO205 cells; test: Cell cycle distribution by flow cytometry; details: 24 h; for Cell Cycle Distribution G0/G1 / Cell Cycle Distribution G2/M / Cell Cycle Distribution S: COLO205 cells, Table 12
Protocol: as §1
(§4) The effects of the hydrolyzed PMF-enriched compositions, nobiletin and 70% PMF OPE on cell cycle distribution were studied, following the procedures described in Section 8.4. Results for cell cycle distribution in HL-60 cells, COLO205 cells and AGS cells are provided in Table 5, Table 6 and Table 7, respectively. […] In HL-60 cells, G2/M arrest predominated in cells treated with 6N PMF concentrations ≧5 μM and with 1N PMF concentrations ≧25 μM.
(§5) Compounds A-K were evaluated in terms of their effects in arresting cell cycle progression by observing cell cycle phase distribution in cells treated with the compounds. Cells were treated with 5, 10, 25, 50, and 100 μM of one of compound A-K or DMSO (control) for 24 h and subjected to flow cytometric analysis after staining their DNA, as described above.
(§6) Similar cell cycle phase distribution studies were performed in AGS, COLO205, and HT-29 cells in response to individual PMFs, with results reported in Tables 11, 12 and 13, respectively.

[5] = system: AGS cells; test: Cell cycle distribution by flow cytometry; details: 24 h; for Cell Cycle Distribution G0/G1 / Cell Cycle Distribution G2/M / Cell Cycle Distribution S: Table 11
Protocol: as §1, §4, §5, §6

[6] = system: HT-29 cells; test: Cell cycle distribution by flow cytometry; details: for Cell Cycle Distribution G0/G1 / Cell Cycle Distribution G2/M / Cell Cycle Distribution S: 24 h
Protocol: as §1, §5, §6

[7] = system: HL-60 cells; test: Cell cycle distribution by flow cytometry; details: 24 h; for Cell Cycle Distribution G0/G1 / Cell Cycle Distribution G2/M / Cell Cycle Distribution S: Table 10
Protocol: as §1, §4, §5

Compound: COc1ccc(-c2oc3c(OC)c(OC)c(OC)c(O)c3c(=O)c2OC)cc1OC [Compound C, 5-hydroxy-3,6,7,8,3′,4′-hexamethoxyflavone]
- AC50 [1]: > 100 µM
- AC50 [2]: 18.9 ± 0.41 µM
- AC50 [3]: 63.65 ± 0.61 µM
- Cell Cycle Distribution G0/G1 ([4]; 5 μM): 63.55 ± 0.99
- Cell Cycle Distribution G2/M ([4]; 5 μM): 6.16 ± 0.37
- Cell Cycle Distribution S ([4]; 5 μM): 30.29 ± 0.61
- Cell Cycle Distribution G0/G1 ([4]; 10 μM): 75.57 ± 0.83
- Cell Cycle Distribution G2/M ([4]; 10 μM): 6.37 ± 1.50
- Cell Cycle Distribution S ([4]; 10 μM): 18.07 ± 0.67
- Cell Cycle Distribution G0/G1 ([4]; 25 μM): 74.27 ± 0.83
- Cell Cycle Distribution G2/M ([4]; 25 μM): 0.43 ± 0.20
- Cell Cycle Distribution S ([4]; 25 μM): 25.30 ± 0.63
- Cell Cycle Distribution G0/G1 ([4]; 50 μM): 58.30 ± 0.57
- Cell Cycle Distribution G2/M ([4]; 50 μM): 16.70 ± 0.59
- Cell Cycle Distribution S ([4]; 50 μM): 25.00 ± 1.16
- Cell Cycle Distribution G0/G1 ([4]; 100 μM): 51.84 ± 0.31
- Cell Cycle Distribution G2/M ([4]; 100 μM): 19.04 ± 0.39
- Cell Cycle Distribution S ([4]; 100 μM): 29.13 ± 0.70
- Cell cycle arrest, in words ([4]; COLO 205 cells, 5-100 μM): decrease in G1 arrest accompanied by an increase in G2/M phase cell population
- Cell Cycle Distribution G0/G1 ([5]; 5 μM): 45.5 ± 1.06
- Cell Cycle Distribution G2/M ([5]; 5 μM): 9.9 ± 0.07
- Cell Cycle Distribution S ([5]; 5 μM): 45.2 ± 0.35
- Cell Cycle Distribution G0/G1 ([5]; 10 μM): 29.6 ± 1.77
- Cell Cycle Distribution G2/M ([5]; 10 μM): 22.0 ± 0.78
- Cell Cycle Distribution S ([5]; 10 μM): 26.1 ± 0.85
- Cell Cycle Distribution G0/G1 ([5]; 25 μM): 20.6 ± 0.42
- Cell Cycle Distribution G2/M ([5]; 25 μM): 47.3 ± 1.13
- Cell Cycle Distribution S ([5]; 25 μM): 31.3 ± 0.49
- Cell Cycle Distribution G0/G1 ([5]; 50 μM): 18.2 ± 0.42
- Cell Cycle Distribution G2/M ([5]; 50 μM): 32.7 ± 0.57
- Cell Cycle Distribution S ([5]; 50 μM): 50.1 ± 1.20
- Cell Cycle Distribution G0/G1 ([5]; 100 μM): 17.0 ± 0.07
- Cell Cycle Distribution G2/M ([5]; 100 μM): 32.4 ± 0.78
- Cell Cycle Distribution S ([5]; 100 μM): 52.0 ± 0.85
- Cell cycle arrest, in words ([5]; 5-100 μM): decrease in G1 arrest accompanied by an increase in G2/M phase cell population
- Cell Cycle Distribution G0/G1 ([6]; 5 μM): 65.24 ± 0.32
- Cell Cycle Distribution G2/M ([6]; 5 μM): 7.62 ± 0.11
- Cell Cycle Distribution S ([6]; 5 μM): 27.15 ± 0.21
- Cell Cycle Distribution G0/G1 ([6]; 10 μM): 69.14 ± 0.14
- Cell Cycle Distribution G2/M ([6]; 10 μM): 6.58 ± 0.18
- Cell Cycle Distribution S ([6]; 10 μM): 24.28 ± 0.32
- Cell Cycle Distribution G0/G1 ([6]; 25 μM): 80.09 ± 0.19
- Cell Cycle Distribution G2/M ([6]; 25 μM): 4.39 ± 0.37
- Cell Cycle Distribution S ([6]; 25 μM): 15.54 ± 0.19
- Cell Cycle Distribution G0/G1 ([6]; 50 μM): 69.85 ± 0.66
- Cell Cycle Distribution G2/M ([6]; 50 μM): 5.91 ± 0.49
- Cell Cycle Distribution S ([6]; 50 μM): 24.25 ± 1.15
- Cell Cycle Distribution G0/G1 ([6]; 100 μM): 77.48 ± 0.74
- Cell Cycle Distribution G2/M ([6]; 100 μM): 3.94 ± 1.32
- Cell Cycle Distribution S ([6]; 100 μM): 18.59 ± 0.58
- Cell cycle arrest, in words ([6]; 5-100 μM, 24 h exposure): significant accumulation of cells in G1 phase
- Cell Cycle Distribution G0/G1 ([7]; 5 μM): 70.99 ± 0.49
- Cell Cycle Distribution G2/M ([7]; 5 μM): 0.95 ± 0.35
- Cell Cycle Distribution S ([7]; 5 μM): 28.07 ± 0.99
- Cell Cycle Distribution G0/G1 ([7]; 10 μM): 78.47 ± 0.64
- Cell Cycle Distribution G2/M ([7]; 10 μM): 19.89 ± 1.06
- Cell Cycle Distribution S ([7]; 10 μM): 1.64 ± 0.42
- Cell cycle arrest, in words ([7]; 25 μM): decrease in G1 arrest was accompanied by an increase in G2/M phase cell population
- Cell Cycle Distribution G0/G1 ([7]; 25 μM): 40.12 ± 0.64
- Cell Cycle Distribution G2/M ([7]; 25 μM): 20.37 ± 0.57
- Cell Cycle Distribution S ([7]; 25 μM): 39.51 ± 0.57
- Cell Cycle Distribution G0/G1 ([7]; 50 μM): 51.42 ± 1.13
- Cell Cycle Distribution G2/M ([7]; 50 μM): 11.64 ± 1.06
- Cell Cycle Distribution S ([7]; 50 μM): 36.94 ± 0.85
- Cell Cycle Distribution G0/G1 ([7]; 100 μM): 50.23 ± 1.91
- Cell Cycle Distribution G2/M ([7]; 100 μM): 18.74 ± 1.56
- Cell Cycle Distribution S ([7]; 100 μM): 31.03 ± 1.06
- Cell cycle arrest, in words ([7]; 25-100 μM): significant G1 arrest
